Results from ChEMBL document CHEMBL5356933, “Dual functional therapeutics: mitigating bacterial infection and associated inflammation” (RSC Med Chem, 2023).
In brackets after ≈: the same amount, converted by molar mass. Residues, ends and D or L forms follow the SMILES beside them.

What was measured:
[1] = tested on: Staphylococcus epidermidis; experiment: Antibacterial activity against Staphylococcus epidermidis assessed as reduction in microbial growth incubated for 24 hrs by broth micro-dilution method; format: functional
Staphylococcus aureus [2] = experiment: Antibacterial activity against Staphylococcus aureus ATCC 33591 assessed as reduction in bacterial growth; format: functional
RAW264.7 [3] = experiment: Anti-inflammatory activity against mouse RAW264.7 cells assessed as inhibition of LPS-induced NO production at 20 ug/ml relative to control; format: functional; set-up: scale not given: the % may be the effect or the level left; conditions: dose 20 µg/ml
RAW264.7 [4] = experiment: Immunosuppressive activity in LPS-treated mouse RAW264.7 cells assessed as inhibition of MCP-1 level at 20 ug/ml incubated for 24 hrs by ELISA analysis relative to control; format: functional; set-up: scale not given: the % may be the effect or the level left; conditions: dose 20 µg/ml
Pseudomonas aeruginosa = experiment: Antibacterial activity against multi-drug resistant Pseudomonas aeruginosa assessed as reduction in bacterial growth by broth microdilution method; format: functional
Escherichia coli [5] = experiment: Antibacterial activity against Escherichia coli ATCC 25922 assessed as reduction in bacterial growth by broth microdilution method; format: functional
RAW264.7 [6] = experiment: Anti-inflammatory activity in mouse RAW264.7 cells assessed as reduction in LPS-induced IL-6 mRNA expression at 20 ug/ml incubated for 24 hrs by qPCR analysis relative to control; format: functional; set-up: scale not given: the % may be the effect or the level left; conditions: dose 20 µg/ml
RAW264.7 [7] = experiment: Antiinflammatory activity in LPS-induced mouse RAW264.7 cells assessed as reduction in TNF alpha level at 20 ug/ml measured after 72 hrs by ELISA assay relative to control; format: functional; set-up: scale not given: the % may be the effect or the level left; conditions: dose 20 µg/ml
Klebsiella pneumoniae = experiment: Antibacterial activity against Klebsiella pneumoniae clinical isolate assessed as reduction in cell growth incubated for 48 hrs by broth micro-dilution method; format: functional
Enterococcus faecium = experiment: Antibacterial activity against Enterococcus faecium clinical isolate assessed as reduction in cell growth incubated for 48 hrs by broth micro-dilution method; format: functional
Staphylococcus aureus [8] = experiment: Antibacterial activity against Staphylococcus aureus clinical isolate assessed as reduction in cell growth incubated for 48 hrs by broth micro-dilution method; format: functional
Escherichia coli [9] = experiment: Antimicrobial activity against Escherichia coli ATCC 25922 assessed as reduction in microbial growth incubated for 24 hrs by CLSI based broth microdilution method; format: functional
Streptococcus pneumoniae = experiment: Antibacterial activity against Streptococcus pneumoniae ATCC 49619 assessed as reduction in bacterial growth; format: functional
RAW264.7 [10] = experiment: Anti-inflammatory activity against mouse RAW264.7 cells assessed as inhibition of LPS-induced NO production at 10 uM incubated for 24 hrs by Griess reagent based analysis relative to control; format: functional; set-up: scale not given: the % may be the effect or the level left
Escherichia coli [11] = experiment: Antibacterial activity against Escherichia coli ATCC 25922 assessed as inhibition of bacterial growth incubated for 16 to 18 hrs by broth microdilution method; format: functional; conditions: time 16-18 hrs
[12] = Hemolytic activity in human RBC assessed as hemolysis up to 100 microg/ml measured after 1 hr; format: toxicity, cell-based, Erythrocyte; conditions: red blood cells (erythrocytes), dose < 100 µg/ml
Escherichia coli [13] = experiment: Antibacterial activity against Escherichia coli assessed as reduction in bacterial growth by broth micro-dilution method; format: functional
RAW264.7 [14] = experiment: Antiinflammatory activity against LPS-stimulated mouse RAW264.7 cells assessed as inhibition of TNFalpha production at 10 uM preincubated for 27 hrs followed by LPS stimulation and measured after 12 hrs by ELISA analysis relative to control; format: functional; set-up: scale not given: the % may be the effect or the level left; conditions: time 39 hrs
Staphylococcus aureus [15] = experiment: Antibacterial activity against methicillin-resistant Staphylococcus aureus ATCC 33591 assessed as reduction in bacterial growth incubated for 24 hrs by agar plate method; format: functional
J774.A1 [16] = experiment: Antiinflammatory activity against mouse J774.A1 cells assessed as inhibition of LPS-stimulated TNFalpha release measured at 10 uM after 30 mins by ELISA relative to control; format: functional; set-up: scale not given: the % may be the effect or the level left; conditions: 0.5 h
J774.A1 [17] = experiment: Antiinflammatory activity in mouse J774.A1 cells assessed as decrease in LPS-induced IL-6 secretion at 20 uM preincubated for 30 mins followed by LPS stimulation and measured after 24 hrs by ELISA; format: functional; set-up: scale not given: the % may be the effect or the level left; conditions: time 1470 min, 24.5 h
Acinetobacter baumannii = experiment: Antibacterial activity against Acinetobacter baumannii ATCC 19606 assessed as bacterial growth inhibition at 32 ug/ml measured after 16 hrs by broth microdilution method; format: functional; conditions: dose 32 µg/ml
RAW264.7 [18] = experiment: Antiinflammatory activity against LPS-induced mouse RAW264.7 cells assessed as reduction in IL-6 mRNA expression incubated for 24 hrs by RT-PCR analysis relative to control; format: functional; set-up: scale not given: the % may be the effect or the level left
[19] = Acute toxicity in Kunming mouse assessed as survival rate at 40 ug/kg, ip administered once daily for 14 days relative to control; format: organism-based; conditions: in vivo, 0.04 mg/kg, time 14 day, read-out: Activity
[20] = Acute toxicity in Kunming mouse assessed as survival rate at 160 ug/kg, ip administered once daily for 14 days relative to control; format: organism-based; conditions: in vivo, 0.16 mg/kg, time 14 day, read-out: Activity
RAW264.7 [21] = experiment: Antiinflammatory activity against mouse RAW264.7 cells assessed as reduction in TNF alpha production incubated for 24 hrs by ELISA method relative to control; format: functional; set-up: scale not given: the % may be the effect or the level left
RAW264.7 [22] = experiment: Anti-inflammatory activity against mouse RAW264.7 cells assessed as reduction in LPS-induced IL-6 mRNA production relative to control; format: functional; set-up: scale not given: the % may be the effect or the level left
RAW264.7 [23] = experiment: Anti-inflammatory activity against mouse RAW264.7 cells assessed as reduction in LPS-induced TNFalpha production relative to control; format: functional; set-up: scale not given: the % may be the effect or the level left
[24] = Acute toxicity in Kunming mouse assessed as survival rate at 80 ug/kg, ip administered once daily for 14 days relative to control; format: organism-based; conditions: in vivo, 0.08 mg/kg, time 14 day, read-out: Activity

CCCCCCCCCCCCCCCC(=O)N(CCNC(=O)CN1C[C@H](Cc2ccccc2)NC(=O)[C@H](CCCCN)N(C(=O)CCc2ccccc2)CCNC(=O)[C@H](CCCCN)N(C(=O)CCc2ccccc2)CCNC(=O)[C@H](CCCCN)N(C(=O)CCc2ccccc2)CCNC(=O)CCC1=O)[C@@H](CCCCN)C(N)=O
MIC [1]: 0.6 µM
MIC (Staphylococcus aureus [2]): 2.4 µM (≈ 3.86 µg/mL)

CC[C@H](C)[C@H](NC(=O)[C@H](Cc1cnc[nH]1)NC(=O)[C@H](CO)NC(=O)[C@@H](NC(=O)[C@@H](NC(=O)[C@@H](NC(=O)[C@@H](NC(=O)[C@H](CCCNC(=N)N)NC(=O)[C@H](CC(C)C)NC(=O)[C@H](CCCCN)NC(=O)[C@H](CCC(=O)O)NC(=O)[C@H](CCCCN)NC(=O)[C@H](CC(C)C)NC(=O)[C@H](CCCCN)NC(=O)[C@H](CS)NC(=O)[C@H](CC(C)C)NC(=O)[C@H](Cc1ccccc1)NC(=O)[C@H](CC(N)=O)NC(=O)[C@H](CS)NC(=O)[C@@H](N)CCCCN)[C@@H](C)O)C(C)C)[C@@H](C)CC)[C@@H](C)O)C(=O)N[C@@H](CC(=O)O)C(=O)N[C@@H](CCCCN)C(=O)N[C@H](C(=O)N[C@@H](CC(C)C)C(=O)N[C@@H](CCCNC(=N)N)C(=O)N1CCC[C@H]1C(=O)N[C@@H](CCC(N)=O)C(=O)NCC(N)=O)C(C)C (H-KCNFLCKLKEKLRTVITSHIDKVLRPQG-NH2)
Activity (RAW264.7 [3]): 70%
Activity (RAW264.7 [4]): 68%
MIC (Pseudomonas aeruginosa): 37.5 µg/mL (≈ 11.5 µM)
MIC (Escherichia coli [5]): 4.69 µg/mL (≈ 1.44 µM)
Activity (RAW264.7 [6]): 86%
Activity (RAW264.7 [7]): 60%

CC[C@H](C)[C@H](NC(=O)[C@H](Cc1c[nH]c2ccccc12)NC(=O)[C@H](CCCNC(=N)N)NC(=O)[C@H](CCC(N)=O)NC(=O)[C@@H](NC(=O)[C@H](Cc1c[nH]c2ccccc12)NC(=O)[C@H](CCCNC(=N)N)NC(=O)[C@@H](N)CCCNC(=N)N)C(C)C)C(=O)N[C@@H](CCCNC(=N)N)C(=O)N[C@@H](CCCNC(=N)N)C(=O)N[C@@H](Cc1c[nH]c2ccccc12)C(=O)N[C@@H](CCCNC(=N)N)C(=O)N[C@@H](CCCCN)C(=O)N[C@@H](Cc1c[nH]c2ccccc12)C(=O)N[C@H](C(=O)O)C(C)C (H-RRWVQRWIRRWRKWV-OH)
MIC (Klebsiella pneumoniae): 5 µM (≈ 11.3 µg/mL)
MIC (Enterococcus faecium): 5 µM (≈ 11.3 µg/mL)
MIC (Staphylococcus aureus [8]): 5 µM (≈ 11.3 µg/mL)

CCCCCCCCCCCCCCCC(=O)N(CC(N)=O)C[C@H](CCCCN)NC(=O)N1C[C@H](Cc2ccccc2)NC(=O)CN(C(=O)CCCN)C[C@H](Cc2ccccc2)NC(=O)CN(C(=O)CCCN)C[C@H](Cc2ccccc2)NC(=O)CN(C(=O)CCCN)C[C@H](Cc2ccccc2)NC(=O)CCC1=O
MIC (Escherichia coli [9]): 1 µM

CCCCCCCCCCN(Cc1cccc2ccccc12)C(=O)[C@@H](N)CCCCN
MIC (Streptococcus pneumoniae): 4.1 µM (≈ 1.75 µg/mL)

CC(C)C[C@H](NC(=O)[C@H](Cc1c[nH]c2ccccc12)NC(=O)[C@H](CCCCN)NC(=O)[C@H](CCCCN)NC(=O)[C@H](Cc1c[nH]c2ccccc12)NC(=O)[C@H](CCCCN)NC(=O)[C@H](CCCCN)NC(=O)[C@H](Cc1c[nH]c2ccccc12)NC(=O)[C@H](CC(C)C)NC(=O)[C@@H](N)CCCCN)C(=O)N[C@@H](CCCCN)C(N)=O (H-KLWKKWKKWLK-NH2)
Activity (RAW264.7 [10]): 50%

CCOC(=O)[C@H](Cc1ccccc1)NC(=O)C[N+](C)(C)CCCCCCCCCCCC[N+](C)(C)CC(=O)N[C@H](Cc1ccccc1)C(=O)OCC
MIC (Escherichia coli [11]): 0.9 µg/mL
HC50 at 1 h [12]: 758 µg/mL

NCCCOc1cc(OCCCN)cc(-c2cc(-c3ccccc3)cc(-c3cc(OCCCN)cc(OCCCN)c3)c2)c1
MIC (Escherichia coli [13]): 3.13 µg/mL (≈ 5.23 µM)

CC[C@H](C)[C@H](NC(=O)[C@H](CCCNC(=N)N)NC(=O)[C@H](CCCCN)NC(=O)[C@@H](NC(=O)[C@@H](NC(=O)[C@H](CCCNC(=N)N)NC(=O)[C@@H](N)CCCCN)[C@@H](C)CC)C(C)C)C(=O)N[C@@H](CCCCN)C(=O)N[C@@H](CCCCN)C(=O)N[C@@H](Cc1c[nH]c2ccccc12)C(=O)N[C@@H](CC(C)C)C(=O)N[C@@H](CCCNC(=N)N)C(N)=O (H-KRIVKRIKKWLR-NH2)
Activity (RAW264.7 [14]): 74.2%

CCCCCCN(Cc1ccc(-c2ccc(CN(CCCCCC)C(=O)[C@@H](N)CCCCN)cc2)cc1)C(=O)[C@@H](N)CCCCN
MIC (Staphylococcus aureus [15]): 3.1 µg/mL (≈ 4.87 µM)

CC[C@H](C)[C@@H](NC(=O)[C@@H](CCCNC(=N)N)NC(=O)[C@@H](CCCNC(=N)N)NC(=O)[C@@H](CC(C)C)NC(=O)[C@@H](Cc1c[nH]c2ccccc12)NC(=O)[C@@H](C)NC(=O)[C@@H](CCCCN)NC(=O)[C@H](NC(=O)[C@@H](CCCNC(=N)N)NC(=O)[C@@H](CCCNC(=N)N)NC(=O)[C@@H](CC(C)C)NC(=O)[C@H](N)Cc1c[nH]c2ccccc12)[C@@H](C)CC)C(=O)N[C@H](CCCCN)C(=O)N[C@H](C)C(N)=O
Activity (J774.A1 [16]): 64.7%
Activity (J774.A1 [17]): 96.4%
MIC (Acinetobacter baumannii): 2 µM (≈ 3.73 µg/mL)

CC(C)C[C@H](NC(=O)CNC(=O)[C@H](Cc1ccccc1)NC(=O)[C@H](CCCNC(=N)N)NC(=O)[C@H](CCCNC(=N)N)NC(=O)CNC(=O)[C@H](Cc1cnc[nH]1)NC(=O)[C@H](CCCNC(=N)N)NC(=O)CNC(=O)[C@@H](NC(=O)[C@H](C)NC(=O)[C@@H](N)CO)C(C)C)C(=O)N[C@@H](CCCNC(=N)N)C(=O)N[C@@H](CCCCN)C(=O)N[C@@H](Cc1cnc[nH]1)C(=O)N[C@@H](CCCNC(=N)N)C(=O)N[C@@H](CCCCN)C(=O)N[C@@H](Cc1cnc[nH]1)C(=O)O (H-SAVGRHGRRFGLRKHRKH-OH)
Activity (RAW264.7 [18]): 46%
survival at 336 h [19]: 10%
survival at 336 h [20]: 75%
Activity (RAW264.7 [21]): 75%
Activity (RAW264.7 [22]): >50%
Activity (RAW264.7 [23]): >50%
survival at 336 h [24]: 70%
